Laboratory results taken from ChEMBL document CHEMBL4819124, “Folate-targeted verrucarin A reduces the number of activated macrophages in a mouse model of acute peritonitis” (Bioorg Med Chem Lett, 2021).
Active and inactive are the calls of the source. No cut-off for these calls is given here. *1 amine or outer side, *2 acyl side, *3 side chain or, on linkers, in order; H or OH if unused. Where a SMILES comes first, the peptide text is derived from it. The star is where a group is joined. Pteroyl = Nc1nc2ncc(CNc3ccc(C(=O)*)cc3)nc2c(=O)[nH]1; γGlu = O=C(O)[C@H](CCC(=O)[*:2])N[*:1]

Legend:
[1] = biological target: Folate receptor alpha (Homo sapiens, UniProt P15328); assay: Displacement of [3H]-folic acid from FRalpha (unknown origin) expressed in human KB cells after 1 hr; format: cell-based
[2] = biological target: Folate receptor beta (Homo sapiens, UniProt P14207); assay: Displacement of [3H]-folic acid from FRbeta (unknown origin) expressed in mouse RAW264.7 cells after 1 hr; format: cell-based
[3] = system: Mus musculus; assay: (§1) Antiinflammatory activity against mouse model of thioglycolate induced peritonitis assessed as effect on lymphocytes in peritoneal fluid at 1000 nmol/kg, ip dosed twice everyday measured after 3 days by staining based flow cytometric analysis relative to control; format: functional, organism-based; settings: time 3.0 day
[4] = system: KB; assay: Cytotoxicity against human KB cells assessed as reduction in cell viability treated for 1 hr followed by 72 hrs incubation in drug free media by [3H]-thymidine incorporation assay; format: cell-based
[5] = system: Mus musculus; assay: as §1, with “decrease in FR+ macrophages” for “effect on lymphocytes”, “by Alexafluor-488 goat anti-rabbitIgG” for “by”; format: functional, organism-based; settings: time 3.0 day
[6] = system: Mus musculus; assay: Antiinflammatory activity against mouse model of thioglycolate induced peritonitis assessed as effect on granulocytes in peritoneal fluid at 1000 nmol/kg, ip dosed twice everyday measured after 3 days by staining based flow cytometric analysis relative to control; format: functional, organism-based; settings: time 3.0 day
[7] = system: RAW264.7; assay: Cytotoxicity against mouse RAW264.7 cells assessed as reduction in cell viability treated for 1 hr followed by 72 hrs incubation in drug free media by [3H]-thymidine incorporation assay; format: functional, cell-based
[8] = system: Mus musculus; assay: Antiinflammatory activity against mouse model of thioglycolate induced peritonitis assessed as decrease in total macrophage population in peritoneal fluid at 1000 nmol/kg, ip dosed twice everyday measured after 3 days by staining based flow cytometric analysis relative to control; format: functional, organism-based; settings: time 3.0 day

Chain of Folate receptor alpha (P15328 whole entry): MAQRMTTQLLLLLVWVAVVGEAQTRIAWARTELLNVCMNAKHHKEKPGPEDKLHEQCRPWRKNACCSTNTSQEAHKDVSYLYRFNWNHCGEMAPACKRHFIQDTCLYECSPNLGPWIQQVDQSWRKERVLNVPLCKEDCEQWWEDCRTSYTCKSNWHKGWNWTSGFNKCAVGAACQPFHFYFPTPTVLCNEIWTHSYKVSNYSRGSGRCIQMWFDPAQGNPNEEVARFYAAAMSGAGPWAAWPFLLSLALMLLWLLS
Chain of Folate receptor beta (P14207 whole entry): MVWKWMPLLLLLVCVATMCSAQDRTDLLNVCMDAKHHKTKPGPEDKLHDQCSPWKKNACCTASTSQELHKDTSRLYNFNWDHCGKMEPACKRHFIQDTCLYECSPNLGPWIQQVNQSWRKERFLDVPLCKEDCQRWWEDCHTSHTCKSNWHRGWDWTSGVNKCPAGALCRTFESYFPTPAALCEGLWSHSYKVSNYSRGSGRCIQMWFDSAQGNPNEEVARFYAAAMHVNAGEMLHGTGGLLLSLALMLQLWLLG

Molecule N=C(N)NCCC[C@H](NC(=O)[C@H](CC(=O)O)NC(=O)CC[C@H](NC(=O)c1ccc(NCc2cnc3nc(N)[nH]c(=O)c3n2)cc1)C(=O)O)C(=O)N[C@@H](CC(=O)O)C(=O)N[C@@H](CC(=O)O)C(=O)N[C@@H](CS)C(=O)O ({Pteroyl-γGlu}-DRDDC-OH) has an IC50 [1] of 1.4 nM and an IC50 [2] of 0.56 nM.

For CC1=C[C@H]2O[C@@H]3C[C@H]4OC(=O)/C=C\C=C\C(=O)OCC[C@@H](C)[C@H](OC(=O)OCCSSC[C@H](NC(=O)[C@H](CC(=O)O)NC(=O)[C@H](CC(=O)O)NC(=O)[C@H](CCCNC(=N)N)NC(=O)[C@H](CC(=O)O)NC(=O)CC[C@H](NC(=O)c5ccc(NCc6cnc7nc(N)[nH]c(=O)c7n6)cc5)C(=O)O)C(=O)O)C(=O)OC[C@@]2(CC1)[C@]4(C)[C@]31CO1, the Activity [3] was “inactive”, the IC50 [4] was 525 nM and the Activity [5] was “Active”. The Activity [6] was “inactive”, the IC50 [7] was 8.5 nM and the Activity [8] was “Active”.
